This is an account of results in ChEMBL document CHEMBL4052741, “Macrocyclic inhibitors of Factor XIa: Discovery of alkyl-substituted macrocyclic amide linkers with improved potency” (Bioorg Med Chem Lett, 2017).

Bounds are passed on as bounds.

One series deals with Plasma. Description: Anticoagulant activity in human platelet rich plasma assessed as plasma concentration required for 50% increase in clotting time by aPTT assay. Format: functional.
In a further series the target is Coagulation factor XI (Homo sapiens, UniProt P03951). The series is described as follows: Inhibition of human Factor XIa using S-2366 as chromogenic substrate after 60 mins by Lineweaver-Burk plot analysis.
Coagulation factor XI, sequence (P03951 19-387 limits assumed): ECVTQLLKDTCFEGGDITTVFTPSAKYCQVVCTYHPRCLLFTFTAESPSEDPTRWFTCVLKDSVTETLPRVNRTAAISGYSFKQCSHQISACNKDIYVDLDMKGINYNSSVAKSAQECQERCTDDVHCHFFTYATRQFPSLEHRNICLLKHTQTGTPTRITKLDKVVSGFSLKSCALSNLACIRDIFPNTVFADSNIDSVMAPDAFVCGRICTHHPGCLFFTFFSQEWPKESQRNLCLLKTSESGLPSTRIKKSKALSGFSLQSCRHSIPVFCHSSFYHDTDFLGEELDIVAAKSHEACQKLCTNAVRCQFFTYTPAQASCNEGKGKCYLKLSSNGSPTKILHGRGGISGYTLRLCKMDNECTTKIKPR
Coagulation factor XI, sequence (P03951 388-625 limits assumed): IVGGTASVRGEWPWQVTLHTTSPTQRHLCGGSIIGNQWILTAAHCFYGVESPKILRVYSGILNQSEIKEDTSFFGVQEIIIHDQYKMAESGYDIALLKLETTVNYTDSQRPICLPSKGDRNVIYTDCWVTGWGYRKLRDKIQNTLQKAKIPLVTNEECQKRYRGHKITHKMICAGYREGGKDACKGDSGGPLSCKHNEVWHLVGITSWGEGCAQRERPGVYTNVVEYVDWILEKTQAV
Series [1] in a line: Half life in human liver microsomes. Format: ADME, microsome. Background: Liver microsomes are vesicles of endoplasmic reticulum, rich in cytochrome P450 enzymes.
The nature of series [2]: Permeability of the compound from apical to basolateral side in human Caco2 cells. Format: ADME, cell-based. The note with it: Caco-2, read-out: permeability.
Series [3] in a line: Permeability of the compound from basolateral to apical side in human Caco2 cells. Format: ADME, cell-based. The following applies: Caco-2, read-out: permeability. Background: Caco-2 monolayers are a common model of the intestinal barrier.
Series [4] in a line: Protein binding in human plasma. Format: ADME, cell-free. The following applies: read-out: PPB (converted).
The nature of series [5]: Volume of distribution at steady state in Sprague-Dawley rat at 0.55 mg/kg, iv or 1.09 mg/kg, po administered as cassette dose by LC-MS/MS analysis. The following applies: in vivo, read-out: Vdss. Format: ADME, organism-based.
Series [6] in a line: Clearance in Sprague-Dawley rat at 0.55 mg/kg, iv or 1.09 mg/kg, po administered as cassette dose by LC-MS/MS analysis. Format: ADME, organism-based. The note with it: in vivo.
Series [7] can be described thus: Oral bioavailability in Sprague-Dawley rat at 1.09 mg/kg administered as cassette dose by LC-MS/MS analysis. Format: ADME, organism-based. The note with it: in vivo.
Series [8] is described as follows: Half life in Sprague-Dawley rat at 0.55 mg/kg, iv or 1.09 mg/kg, po administered as cassette dose by LC-MS/MS analysis. Format: ADME, organism-based. The following applies: in vivo.
Series [9] in a line: AUC in Sprague-Dawley rat at 0.55 mg/kg, iv or 1.09 mg/kg, po by LC-MS/MS analysis. The note with it: in vivo. Format: ADME, organism-based.
Series [10] can be described thus: Clearance in Sprague-Dawley rat at 0.75 mg/kg, iv or 1.5 mg/kg, po administered as cassette dose by LC-MS/MS analysis. Format: ADME, organism-based. The note with it: in vivo.
The nature of series [11]: Half life in Sprague-Dawley rat at 0.75 mg/kg, iv or 1.5 mg/kg, po administered as cassette dose by LC-MS/MS analysis. Format: ADME, organism-based. The following applies: in vivo.
Series [12] in a line: Oral bioavailability in Sprague-Dawley rat at 1.5 mg/kg by LC-MS/MS analysis. Format: ADME, organism-based. The following applies: in vivo.
Series [13] is described as follows: Volume of distribution at steady state in Sprague-Dawley rat at 0.75 mg/kg, iv or 1.5 mg/kg, po administered as cassette dose by LC-MS/MS analysis. Format: ADME, organism-based. The following applies: in vivo, read-out: Vdss.
Series [14] is described as follows: AUC in Sprague-Dawley rat at 0.75 mg/kg, iv or 1.5 mg/kg, po by LC-MS/MS analysis. Format: ADME, organism-based. The note with it: in vivo.
Series [15] is described as follows: Clearance in Sprague-Dawley rat at 0.55 mg/kg, iv or 1.11 mg/kg, po administered as cassette dose by LC-MS/MS analysis. Format: ADME, organism-based. The note with it: in vivo.
A short description of series [16]: AUC in Sprague-Dawley rat at 0.55 mg/kg, iv or 1.11 mg/kg, po by LC-MS/MS analysis. Format: ADME, organism-based. The following applies: in vivo.
Series [17] is described as follows: Volume of distribution at steady state in Sprague-Dawley rat at 0.55 mg/kg, iv or 1.11 mg/kg, po administered as cassette dose by LC-MS/MS analysis. Format: ADME, organism-based. The following applies: in vivo, read-out: Vdss.
Series [18] in a line: Oral bioavailability in Sprague-Dawley rat at 1.11 mg/kg by LC-MS/MS analysis. Format: ADME, organism-based. The following applies: in vivo.
Series [19] can be described thus: Half life in Sprague-Dawley rat at 0.55 mg/kg, iv or 1.11 mg/kg, po administered as cassette dose by LC-MS/MS analysis. The note with it: in vivo. Format: ADME, organism-based.

On to `COC(=O)Nc1ccc2c(c1)NC(=O)C[C@@H](C)CCC[C@H](NC(=O)/C=C/c1cc(Cl)ccc1-n1cnnn1)c1nc-2c(Cl)[nH]1`, for which the EC1.5 with Plasma is 0.57 µM. Moreover, the Ki (in general, a measure of affinity in units of concentration, obtained from inhibition or displacement) on Coagulation factor XI amounted to 0.06 nM.

Regarding `COC(=O)Nc1ccc2c(c1)NC(=O)C(C)C/C=C/C[C@H](NC(=O)/C=C/c1cc(Cl)ccc1-n1cnnn1)c1nc-2c[nH]1` (single isomer, unassigned; diastereomer B), the EC1.5 in the series on Plasma was 1.2 µM. On Coagulation factor XI, this compound displayed a Ki of 2.7 nM.

For the compound `COC(=O)Nc1ccc2c(c1)NC(=O)[C@H](C)CCC[C@H](NC(=O)/C=C/c1cc(Cl)ccc1-n1cnnn1)c1nc-2c(Cl)[nH]1`, in the series with Plasma, the EC1.5 was found to be 1.2 µM. Also, on Coagulation factor XI, the Ki amounted to 0.07 nM.

In the case of `COC(=O)Nc1ccc2c(c1)NC(=O)[C@H](C)CCC[C@H](NC(=O)c1c(F)cc(C)cc1F)c1nc-2c(Cl)[nH]1`, the EC1.5 in the series with Plasma was 2 µM. For the same compound, the half-life (usually the time needed for the level to fall by half in the phase considered) in series [1] worked out at 8 min. In [2], the Papp A→B is less than 1.5 ×10⁻⁶ cm/s. Also, the affinity at Coagulation factor XI corresponds to a Ki of 10 nM. For the same compound, the Papp B→A in series [3] was found to be 11.1 ×10⁻⁶ cm/s.

Turning to `COC(=O)Nc1ccc2c(c1)NC(=O)CCC(C)CC[C@H](NC(=O)/C=C/c1cc(Cl)ccc1-n1cnnn1)c1nc-2c[nH]1` (single isomer, unassigned; diastereomer A), in the series with Plasma, the EC1.5 was found to be 2.5 µM. The same compound displayed a Ki at Coagulation factor XI of 5.9 nM.

As for `COC(=O)Nc1ccc2c(c1)NC(=O)CCCCC[C@H](NC(=O)/C=C/c1cc(Cl)ccc1-n1cnnn1)c1nc-2c[nH]1`, the fraction unbound in [4] is 0.038.

Consider `COC(=O)Nc1ccc2c(c1)NC(=O)[C@@H](C(C)C)CCC[C@H](NC(=O)/C=C/c1cc(Cl)ccc1-n1cnnn1)c1nc-2c[nH]1`, for which, in the series with Plasma, the EC1.5 was 64 µM. The Ki at Coagulation factor XI was 21 nM.

For the compound `COC(=O)Nc1ccc2c(c1)NC(=O)CC/C=C/C[C@H](NC(=O)/C=C/c1cc(Cl)ccc1-n1cnnn1)c1nc-2c(Cl)[nH]1`, the Vd in series [5] is 0.4 L/kg. Also, in series [6], the clearance was 24 mL/min/kg. For the same compound, the Papp A→B in series [2] was less than 1.5 ×10⁻⁶ cm/s. Besides, in series [3], the Papp B→A came out at 5.8 ×10⁻⁶ cm/s. Further, the bioavailability – broadly, dose-corrected exposure relative to a reference, in per cent – in [7] was determined as 0.2%. For the same compound, the half-life in [8] is 42 min. Also, the AUC (as a rule, the area under the concentration-time curve, a measure of exposure) in [9] turned out to be 0.002 µM·h.

On to `CC[C@@H]1CCC[C@H](NC(=O)/C=C/c2cc(Cl)ccc2-n2cnnn2)c2nc(c[nH]2)-c2ccc(NC(=O)OC)cc2NC1=O`, for which the EC1.5 with Plasma was found to be 0.52 µM.

As for `COC(=O)Nc1ccc2c(c1)NC(=O)C(C)C/C=C/C[C@H](NC(=O)/C=C/c1cc(Cl)ccc1-n1cnnn1)c1nc-2c[nH]1` (single isomer, unassigned; diastereomer A), the EC1.5 with Plasma was 0.67 µM. On Coagulation factor XI, the Ki worked out at 0.33 nM.

In the case of `COC(=O)Nc1ccc2c(c1)NC(=O)CC(C)CC[C@H](NC(=O)/C=C/c1cc(Cl)ccc1-n1cnnn1)c1nc-2c[nH]1` (single isomer, unassigned; diastereomer A), in the series with Plasma, the EC1.5 was 37 µM. On Coagulation factor XI, the affinity corresponds to a Ki of 36 nM.

Take `COC(=O)Nc1ccc2c(c1)NC(=O)C(C)CCCC[C@H](NC(=O)/C=C/c1cc(Cl)ccc1-n1cnnn1)c1nc-2c[nH]1` (single isomer, unassigned; diastereomer A): the EC1.5 in the series on Plasma came to 5.3 µM. Affinity on Coagulation factor XI was put at a Ki of 6.5 nM.

Regarding `CC[C@H]1CCC[C@H](NC(=O)/C=C/c2cc(Cl)ccc2-n2cnnn2)c2nc(c[nH]2)-c2ccc(NC(=O)OC)cc2NC1=O`, the EC1.5 with Plasma is 4 µM.

Consider `COC(=O)Nc1ccc2c(c1)NC(=O)C[C@@H](C)CCC[C@H](NC(=O)/C=C/c1cc(Cl)ccc1-n1cnnn1)c1nc-2c[nH]1`, for which the EC1.5 in the series with Plasma stood at 1.1 µM. Further, the fraction unbound in [4] is 0.02.

Take `COC(=O)Nc1ccc2c(c1)NC(=O)C(C)CCCC[C@H](NC(=O)/C=C/c1cc(Cl)ccc1-n1cnnn1)c1nc-2c[nH]1` (single isomer, unassigned; diastereomer B): the EC1.5 in the series with Plasma came out at 32 µM. On Coagulation factor XI, this compound gave a Ki of 31 nM.

`COC(=O)Nc1ccc2c(c1)NC(=O)C[C@@H](C)CCC[C@H](NC(=O)c1c(F)cc(C)cc1F)c1nc-2c(Cl)[nH]1`: the EC1.5 in the series on Plasma was found to be 12 µM. The half-life in series [1] was 45 min. In series [2], the Papp A→B was 1.8 ×10⁻⁶ cm/s. The compound further yielded a Ki on Coagulation factor XI of 44 nM. In series [3], the Papp B→A came to 25.1 ×10⁻⁶ cm/s.

Turning to `COC(=O)Nc1ccc2c(c1)NC(=O)[C@H](C)CCC[C@H](NC(=O)/C=C/c1cc(Cl)ccc1-n1cnnn1)c1nc-2c[nH]1`, the EC1.5 in the series on Plasma worked out at 0.39 µM.

For `COC(=O)Nc1ccc2c(c1)NC(=O)CC(C)CC[C@H](NC(=O)/C=C/c1cc(Cl)ccc1-n1cnnn1)c1nc-2c[nH]1` (single isomer, unassigned; diastereomer B), the EC1.5 with Plasma was 31 µM. At Coagulation factor XI, the Ki is 35 nM.

For `COC(=O)Nc1ccc2c(c1)NC(=O)[C@@H](C)CCC[C@H](NC(=O)/C=C/c1cc(Cl)ccc1-n1cnnn1)c1nc-2c[nH]1`, the EC1.5 in the series with Plasma was 0.63 µM.

As to `COC(=O)Nc1ccc2c(c1)NC(=O)[C@H](C(C)C)CCC[C@H](NC(=O)/C=C/c1cc(Cl)ccc1-n1cnnn1)c1nc-2c[nH]1`, the EC1.5 in the series with Plasma is 1.1 µM. Further, the Ki at Coagulation factor XI is 0.14 nM.

On to `COC(=O)Nc1ccc2c(c1)NC(=O)C[C@H](C)/C=C/C[C@H](NC(=O)/C=C/c1cc(Cl)ccc1-n1cnnn1)c1nc-2c[nH]1`, for which the EC1.5 in the series on Plasma is 0.98 µM. At Coagulation factor XI, this compound gave a Ki of 2 nM.

On to `COC(=O)Nc1ccc2c(c1)NC(=O)C[C@@H](C)/C=C/C[C@H](NC(=O)/C=C/c1cc(Cl)ccc1-n1cnnn1)c1nc-2c[nH]1`, for which the EC1.5 with Plasma stood at 0.38 µM. On Coagulation factor XI, this compound had a Ki of 0.13 nM.

For `COC(=O)Nc1ccc2c(c1)NC(=O)C[C@@H](C)/C=C/C[C@H](NC(=O)c1c(F)cc(C)cc1F)c1nc-2c(Cl)[nH]1`, in the series with Plasma, the EC1.5 worked out at 2.7 µM. This compound also displayed a clearance in series [10] of 6 mL/min/kg. The figures for the half-life in [1] and in series [11] were 35 min and 54 min, respectively. Moreover, in [2], the Papp A→B is less than 1.5 ×10⁻⁶ cm/s. Further, the Ki at Coagulation factor XI is 12 nM. This compound also had a bioavailability in series [12] of 16%. In series [13], the Vd was 0.3 L/kg. In [14], this compound gave an area under the curve (AUC) of 0.991 µM·h. In addition, the Papp B→A in series [3] stood at 18.9 ×10⁻⁶ cm/s.

As for `COC(=O)Nc1ccc2c(c1)NC(=O)CCC(C)CC[C@H](NC(=O)/C=C/c1cc(Cl)ccc1-n1cnnn1)c1nc-2c[nH]1` (single isomer, unassigned; diastereomer B), the EC1.5 in the series with Plasma turned out to be 12 µM. Moreover, the Ki at Coagulation factor XI came to 18 nM.

Consider `COC(=O)Nc1ccc2c(c1)NC(=O)CC/C=C/C[C@H](NC(=O)c1c(F)cc(C)cc1F)c1nc-2c(Cl)[nH]1`, for which the EC1.5 in the series with Plasma amounted to 6.6 µM. This compound gave a clearance in series [15] of 5.6 mL/min/kg. Moreover, the half-life is 17 min in series [1] and 54 min in series [19]. For the same compound, in [2], the Papp A→B was less than 1.5 ×10⁻⁶ cm/s. This compound had an AUC in series [16] of 2.08 µM·h. For the same compound, on Coagulation factor XI, the Ki was found to be 16 nM. In addition, the Vd in [17] was determined as 0.4 L/kg. In series [18], the bioavailability worked out at 41%. In addition, the Papp B→A in series [3] is 20 ×10⁻⁶ cm/s.

As for `COC(=O)Nc1ccc2c(c1)NC(=O)C[C@H](C)CCC[C@H](NC(=O)/C=C/c1cc(Cl)ccc1-n1cnnn1)c1nc-2c[nH]1`, the EC1.5 in the series on Plasma was found to be 27 µM.
